# From PubChem BioAssay (NCI)
#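 1) Cells in 96-well plates. 2) Compound, 48 h, 5 concentrations. 3) Linear interpolation between surrounding doses. 4) Unreached endpoint = highest concentration. Abbreviation: GI50, concentration required for 50% inhibition of growth. The concentration for full growth arrest is given as TGI.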
# Experiments:
# Experiment in all cases: NCI tumour cell line growth inhibition, 48 h
# RXF 393 renal = system: RXF 393 renal
# IGROV1 ovarian = system: IGROV1 ovarian
# HCT-15 colon = system: HCT-15 colon
# SK-MEL-2 melanoma = system: SK-MEL-2 melanoma
# HOP-92 NSCLC = system: HOP-92 NSCLC
# K-562 leukemia = system: K-562 leukemia
# MDA-MB-435 = system: MDA-MB-435
# PC-3 prostate = system: PC-3 prostate
# NCI-H522 lung = system: NCI-H522 lung
# TK-10 renal = system: TK-10 renal
# DU-145 prostate = system: DU-145 prostate
# KM12 colon = system: KM12 colon
# HOP-62 NSCLC = system: HOP-62 NSCLC
# SF-295 CNS = system: SF-295 CNS
# HCC-2998 colon = system: HCC-2998 colon
# NCI-H226 lung = system: NCI-H226 lung
# OVCAR-4 ovarian = system: OVCAR-4 ovarian
# 786-0 renal = system: 786-0 renal
# OVCAR-3 ovarian = system: OVCAR-3 ovarian
# COLO 205 colon = system: COLO 205 colon
# LOX IMVI melanoma = system: LOX IMVI melanoma
# SK-OV-3 ovarian = system: SK-OV-3 ovarian
# SF-539 CNS = system: SF-539 CNS
# CCRF-CEM leukemia = system: CCRF-CEM leukemia
# EKVX NSCLC = system: EKVX NSCLC
# MDA-MB-231 breast = system: MDA-MB-231 breast
# UACC-257 melanoma = system: UACC-257 melanoma
# SK-MEL-5 melanoma = system: SK-MEL-5 melanoma
# NCI-H23 lung = system: NCI-H23 lung
smiles,measurement,setting,value
CC(=O)OC[C@@]12Oc3c(cccc3-c3ccc(O)c4c3O[C@]3(COC(C)=O)C(=C4O)C(=O)C[C@H](C)[C@@H]3OC(C)=O)C(O)=C1C(=O)C[C@H](C)[C@@H]2OC(C)=O,TGI,RXF 393 renal,50.5 µM
same,GI50,IGROV1 ovarian,7.12 µM
same,TGI,IGROV1 ovarian,> 100 µM
same,GI50,HCT-15 colon,5.45 µM
same,TGI,HCT-15 colon,> 100 µM
same,GI50,SK-MEL-2 melanoma,14.7 µM
same,TGI,SK-MEL-2 melanoma,63.9 µM
same,GI50,HOP-92 NSCLC,5 µM
same,TGI,HOP-92 NSCLC,38.5 µM
same,GI50,K-562 leukemia,30.5 µM
same,TGI,K-562 leukemia,> 100 µM
same,GI50,MDA-MB-435,5.3 µM
same,TGI,MDA-MB-435,> 100 µM
same,GI50,PC-3 prostate,15.3 µM
same,TGI,PC-3 prostate,> 100 µM
same,GI50,NCI-H522 lung,7.97 µM
same,TGI,NCI-H522 lung,46.4 µM
same,GI50,TK-10 renal,29.9 µM
same,TGI,TK-10 renal,> 100 µM
same,GI50,DU-145 prostate,10.8 µM
same,TGI,DU-145 prostate,> 100 µM
same,GI50,KM12 colon,27.5 µM
same,TGI,KM12 colon,> 100 µM
same,GI50,HOP-62 NSCLC,4.19 µM
same,TGI,HOP-62 NSCLC,> 100 µM
same,GI50,SF-295 CNS,6.92 µM
same,TGI,SF-295 CNS,80.8 µM
same,GI50,HCC-2998 colon,6.13 µM
same,TGI,HCC-2998 colon,> 100 µM
same,GI50,NCI-H226 lung,20.2 µM
same,TGI,NCI-H226 lung,63.5 µM
same,GI50,OVCAR-4 ovarian,29.4 µM
same,TGI,OVCAR-4 ovarian,> 100 µM
same,GI50,786-0 renal,33.5 µM
same,TGI,786-0 renal,> 100 µM
same,GI50,OVCAR-3 ovarian,13.9 µM
same,TGI,OVCAR-3 ovarian,> 100 µM
same,GI50,COLO 205 colon,19.7 µM
same,TGI,COLO 205 colon,48.9 µM
same,GI50,LOX IMVI melanoma,3.53 µM
same,TGI,LOX IMVI melanoma,12.9 µM
same,GI50,SK-OV-3 ovarian,25.5 µM
same,TGI,SK-OV-3 ovarian,88.6 µM
same,GI50,SF-539 CNS,3.97 µM
same,TGI,SF-539 CNS,> 100 µM
same,GI50,CCRF-CEM leukemia,5.92 µM
same,TGI,CCRF-CEM leukemia,> 100 µM
same,GI50,EKVX NSCLC,24.3 µM
same,TGI,EKVX NSCLC,> 100 µM
same,GI50,MDA-MB-231 breast,25.5 µM
same,TGI,MDA-MB-231 breast,> 100 µM
same,GI50,UACC-257 melanoma,3.4 µM
same,TGI,UACC-257 melanoma,31.4 µM
same,GI50,SK-MEL-5 melanoma,4.76 µM
same,TGI,SK-MEL-5 melanoma,16.9 µM
same,GI50,NCI-H23 lung,10.6 µM
same,TGI,NCI-H23 lung,> 100 µM
